From ChEMBL document CHEMBL1201862, “PubChem BioAssay data set” (2004)
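How tested: cells in 96-well plates exposed to compound for 48 hours at five concentrations. GI50 = concentration required for 50% inhibition of growth.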 The source made the active and inactive calls. No stated cut-off is given here; in the data, active = GI50 up to about 1.1 µM and inactive = higher.

Columns and labels:
Test in all cases: NCI anticancer screen, dose series, 48 h
SNB-19 = system: SNB-19
IGROV-1 = system: IGROV-1
OVCAR-8 = system: OVCAR-8
U-251 = system: U-251
NCI-H460 = system: NCI-H460
Malme-3M = system: Malme-3M
OVCAR-3 = system: OVCAR-3
A549 = system: A549
ACHN = system: ACHN
KM12 = system: KM12
OVCAR-4 = system: OVCAR-4
KM-20L2 = system: KM-20L2
SF-295 = system: SF-295
A498 = system: A498
SR = system: SR
CAKI-1 = system: CAKI-1
NCI/ADR-RES = system: NCI/ADR-RES
BT-549 = system: BT-549
T47D = system: T47D
MDA-N = system: MDA-N

SMILES | GI50 (SNB-19) | GI50 (IGROV-1) | GI50 (OVCAR-8) | GI50 (U-251) | GI50 (NCI-H460) | GI50 (Malme-3M) | GI50 (OVCAR-3) | GI50 (A549) | GI50 (ACHN) | GI50 (KM12) | GI50 (OVCAR-4) | GI50 (KM-20L2) | GI50 (SF-295) | GI50 (A498) | GI50 (SR) | GI50 (CAKI-1) | GI50 (NCI/ADR-RES) | GI50 (BT-549) | GI50 (T47D) | GI50 (MDA-N)
CCOC(=N)/C(=C1\OC(=N)C(c2ccc(Cl)cc2)=C1O)c1ccc(Cl)cc1 | 22.7 µM (inactive) | 28.9 µM (inactive) | 15.4 µM (inactive) | 16.8 µM (inactive) | 21.6 µM (inactive) | 14.3 µM (inactive) | 18 µM (inactive) | 23.4 µM (inactive) | 21.3 µM (inactive) | 18.4 µM (inactive) | 11.8 µM (inactive) | 18.5 µM (inactive) | 25.3 µM (inactive) | 17.8 µM (inactive) | 16.7 µM (inactive) | 23.2 µM (inactive) | – | – | – | –
COc1cc(C(C)O)c[n+](CCC2CNc3ccccc32)c1 (configuration not stated) | > 100 µM (inactive) | > 100 µM (inactive) | > 100 µM (inactive) | > 100 µM (inactive) | > 100 µM (inactive) | > 100 µM (inactive) | 26.1 µM (inactive) | > 100 µM (inactive) | > 100 µM (inactive) | > 100 µM (inactive) | > 100 µM (inactive) | 43 µM (inactive) | > 100 µM (inactive) | > 100 µM (inactive) | > 100 µM (inactive) | > 100 µM (inactive) | – | – | – | –
COc1ccc2c(-c3cc4ccccc4o3)cc(=O)oc2c1 | 26.1 µM (inactive) | 41.3 µM (inactive) | 29.9 µM (inactive) | 24.3 µM (inactive) | 44.7 µM (inactive) | 71.1 µM (inactive) | 16.6 µM (inactive) | 44 µM (inactive) | 39.4 µM (inactive) | 98.2 µM (inactive) | 22.8 µM (inactive) | > 100 µM (inactive) | 22.9 µM (inactive) | 31.3 µM (inactive) | > 100 µM (inactive) | 40.6 µM (inactive) | 24.7 µM (inactive) | 34.1 µM (inactive) | > 55 µM (inactive) | > 76.6 µM (inactive)
O=C(C[n+]1ccccc1)N/N=C(/CCC(=O)N(Cc1ccccc1)Cc1ccccc1)CC(=O)c1ccccc1 | > 100 µM (inactive) | > 100 µM (inactive) | > 100 µM (inactive) | > 100 µM (inactive) | > 100 µM (inactive) | > 100 µM (inactive) | > 100 µM (inactive) | > 100 µM (inactive) | > 100 µM (inactive) | > 100 µM (inactive) | > 100 µM (inactive) | > 100 µM (inactive) | > 100 µM (inactive) | > 100 µM (inactive) | > 100 µM (inactive) | > 100 µM (inactive) | – | – | – | –
CC[C@@]1(O)C(=O)OCc2c1cc1n(c2=O)Cc2cc3c(N)cccc3nc2-1 [9-AMINOCAMPTOTHECIN] | < 0.01 µM (active) | 0.246 µM (active) | 0.0148 µM (active) | 0.0108 µM (active) | < 0.01 µM (active) | 0.0785 µM (active) | 0.207 µM (active) | 0.0188 µM (active) | < 0.01 µM (active) | 0.23 µM (active) | 0.238 µM (active) | 0.0643 µM (active) | < 0.01 µM (active) | 0.0794 µM (active) | < 0.215 µM (active) | < 0.01 µM (active) | 0.0128 µM (active) | 0.0684 µM (active) | – | 0.229 µM (active)
CC(C)c1c2[nH]c3ccccc3c2c(C(C)C)c2[nH]c3ccccc3c12 | > 100 µM (inactive) | > 100 µM (inactive) | > 100 µM (inactive) | > 100 µM (inactive) | > 57.7 µM (inactive) | > 51.4 µM (inactive) | > 54.1 µM (inactive) | > 100 µM (inactive) | 91.8 µM (inactive) | 29.9 µM (inactive) | > 45.3 µM (inactive) | 17.6 µM (inactive) | > 65.9 µM (inactive) | > 100 µM (inactive) | 24.7 µM (inactive) | > 76.6 µM (inactive) | – | – | – | –
CC1(C)OC2CC3COC(=O)C3CC2O1 (configuration not stated) | – | > 100 µM (inactive) | > 100 µM (inactive) | > 100 µM (inactive) | > 100 µM (inactive) | > 100 µM (inactive) | > 100 µM (inactive) | > 100 µM (inactive) | > 100 µM (inactive) | > 100 µM (inactive) | > 100 µM (inactive) | > 100 µM (inactive) | > 100 µM (inactive) | > 100 µM (inactive) | > 100 µM (inactive) | > 100 µM (inactive) | – | – | – | –
CC(=O)O/N=C/c1ncccc1CO | > 100 µM (inactive) | > 100 µM (inactive) | > 100 µM (inactive) | > 100 µM (inactive) | > 100 µM (inactive) | > 100 µM (inactive) | > 100 µM (inactive) | > 100 µM (inactive) | > 100 µM (inactive) | > 100 µM (inactive) | > 100 µM (inactive) | > 100 µM (inactive) | > 100 µM (inactive) | > 100 µM (inactive) | > 100 µM (inactive) | > 100 µM (inactive) | – | – | – | –
Cc1ccc(NC(=O)CCc2nc(N)nc(N)c2-c2ccccc2)cc1C | > 100 µM (inactive) | > 100 µM (inactive) | > 100 µM (inactive) | > 100 µM (inactive) | > 100 µM (inactive) | > 100 µM (inactive) | > 100 µM (inactive) | > 100 µM (inactive) | > 100 µM (inactive) | > 100 µM (inactive) | > 100 µM (inactive) | > 100 µM (inactive) | > 100 µM (inactive) | > 100 µM (inactive) | > 100 µM (inactive) | > 100 µM (inactive) | – | – | – | –
CN(C)C(=O)c1ccc([N+](=O)[O-])cc1 | > 100 µM (inactive) | > 100 µM (inactive) | > 100 µM (inactive) | > 100 µM (inactive) | > 100 µM (inactive) | > 100 µM (inactive) | > 100 µM (inactive) | > 100 µM (inactive) | > 100 µM (inactive) | > 100 µM (inactive) | > 100 µM (inactive) | > 100 µM (inactive) | > 100 µM (inactive) | > 100 µM (inactive) | > 100 µM (inactive) | > 100 µM (inactive) | – | – | – | –
Cc1cc(O)cc2oc(=O)c3c(O)cc(O)cc3c12 [ALTERNARIOL] | 20 µM (inactive) | 19.7 µM (inactive) | 43.2 µM (inactive) | 28.5 µM (inactive) | 13.1 µM (inactive) | 40.3 µM (inactive) | 23 µM (inactive) | 16.1 µM (inactive) | 14.1 µM (inactive) | 26.8 µM (inactive) | 65.3 µM (inactive) | 27.7 µM (inactive) | 26.3 µM (inactive) | 40.1 µM (inactive) | 3.69 µM (inactive) | 21 µM (inactive) | – | – | – | –
